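GI50 is the concentration that inhibits growth by half. TGI: total growth inhibition.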
Key:
Assay in all cases: NCI anticancer screen, dose series, 384-well format
MOLT-4 leukemia = system: MOLT-4 leukemia
K-562 leukemia = system: K-562 leukemia
RXF 393 renal = system: RXF 393 renal
MDA-MB-231 breast = system: MDA-MB-231 breast
SK-MEL-2 melanoma = system: SK-MEL-2 melanoma
TK-10 renal = system: TK-10 renal
HCT-15 colon = system: HCT-15 colon
SK-MEL-5 melanoma = system: SK-MEL-5 melanoma
KM12 colon = system: KM12 colon
NCI-H23 lung = system: NCI-H23 lung
NCI-H522 lung = system: NCI-H522 lung
MALME-3M melanoma = system: MALME-3M melanoma
EKVX NSCLC = system: EKVX NSCLC

Compound	GI50 (MOLT-4 leukemia)	TGI (MOLT-4 leukemia)	GI50 (K-562 leukemia)	TGI (K-562 leukemia)	GI50 (RXF 393 renal)	TGI (RXF 393 renal)	GI50 (MDA-MB-231 breast)	TGI (MDA-MB-231 breast)	GI50 (SK-MEL-2 melanoma)	TGI (SK-MEL-2 melanoma)	GI50 (TK-10 renal)	TGI (TK-10 renal)	GI50 (HCT-15 colon)	TGI (HCT-15 colon)	GI50 (SK-MEL-5 melanoma)	TGI (SK-MEL-5 melanoma)	GI50 (KM12 colon)	TGI (KM12 colon)	GI50 (NCI-H23 lung)	TGI (NCI-H23 lung)	also measured
CNCc1ccccc1-c1csc([C@@H](C)Nc2nc(C)nc3cc(OC)c(OC)cc23)c1	1180 nM	2400 nM	64 nM	723 nM	414 nM	1670 nM	1720 nM	3100 nM	1320 nM	2590 nM	1450 nM	2770 nM	1500 nM	2830 nM	1150 nM	2370 nM	914 nM	2140 nM	1250 nM	2540 nM	GI50 (NCI-H522 lung): 1160 nM; TGI (NCI-H522 lung): 2390 nM; GI50 (MALME-3M melanoma): 1560 nM; TGI (MALME-3M melanoma): 2900 nM; GI50 (EKVX NSCLC): 1100 nM; TGI (EKVX NSCLC): 2320 nM
Cc1cc(Nc2ccc(NC(=O)c3ccc(Nc4ccnc5ccccc45)cc3)cc2)nc(N)n1	203 nM	347 nM	324 nM	921 nM	750 nM	1840 nM	275 nM	737 nM	199 nM	386 nM	5630 nM	17500 nM	3870 nM	13800 nM	1340 nM	2630 nM	193 nM	355 nM	1010 nM	2840 nM	GI50 (NCI-H522 lung): 217 nM; TGI (NCI-H522 lung): 410 nM; GI50 (MALME-3M melanoma): 1000 nM; TGI (MALME-3M melanoma): 2230 nM; GI50 (EKVX NSCLC): 1230 nM; TGI (EKVX NSCLC): 2670 nM

From PubChem BioAssay (NCI)
